In ChEMBL document CHEMBL4359937, “Design, synthesis and evaluation of 2-amino-imidazol-4-one derivatives as potent β-site amyloid precursor protein cleaving enzyme 1 (BACE-1) inhibitors” (Bioorg Med Chem Lett, 2019):

Tests used:
[1] = 1-Octanol/water distribution coefficient, logP of compound at 60 ug/ml shaken for 30 mins and measured by ultraviolet spectrophotometry analysis; type: physicochemical
Beta-secretase 1 [2] = target: T1, Beta-secretase 1 (Homo sapiens, UniProt P56817); test: Inhibition of human BACE1 (1 to 460 residues) expressed in baculovirus infected insect cells at 10 uM using Rh-EVNLDAEFK-quencher as substrate measured after 90 mins by FRET assay relative to control
Beta-secretase 1 [3] = target: T1, Beta-secretase 1; test: Inhibition of human BACE1 (1 to 460 residues) expressed in baculovirus infected insect cells using Rh-EVNLDAEFK-quencher as substrate measured after 90 mins by FRET assay

T1 sequence (P56817 whole entry, the tested form may be a part): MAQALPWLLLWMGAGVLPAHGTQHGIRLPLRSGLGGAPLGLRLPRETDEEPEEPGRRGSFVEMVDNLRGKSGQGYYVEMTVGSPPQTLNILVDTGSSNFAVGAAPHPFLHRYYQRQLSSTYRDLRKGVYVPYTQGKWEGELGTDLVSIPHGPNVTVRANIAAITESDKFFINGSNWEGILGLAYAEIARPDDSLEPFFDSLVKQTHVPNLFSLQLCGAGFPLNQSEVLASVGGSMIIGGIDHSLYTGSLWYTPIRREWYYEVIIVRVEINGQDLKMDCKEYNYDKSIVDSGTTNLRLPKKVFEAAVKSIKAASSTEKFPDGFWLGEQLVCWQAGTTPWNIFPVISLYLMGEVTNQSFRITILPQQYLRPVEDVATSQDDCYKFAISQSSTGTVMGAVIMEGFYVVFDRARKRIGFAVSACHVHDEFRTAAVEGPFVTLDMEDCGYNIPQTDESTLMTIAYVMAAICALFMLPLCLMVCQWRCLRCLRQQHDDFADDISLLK

| SMILES | logP at 0.5 h [1] | inhibition (Beta-secretase 1 [2]) | IC50 (Beta-secretase 1 [3]) |
| --- | --- | --- | --- |
| COc1cccc(-c2cccc(C3(c4ccccc4)N=C(N)N(C)C3=O)c2)c1OC (stereo unspecified) | 2.15 | 78.6% | 1110 nM |
| CN1C(=O)C(c2ccccc2)(c2cccc(-c3ccc(OCc4ccccc4)cc3)c2)N=C1N (stereo unspecified) | 2.99 | 37.7% | > 10000 nM |
| CN1C(=O)C(c2ccccc2)(c2ccccc2)N=C1N | 1.9 | 62.2% |  |
| Cc1ccc(-c2cccc(C3(c4ccccc4)N=C(N)N(C)C3=O)c2)cc1C (stereo unspecified) | 2.49 | 88.3% | 425 nM |
| COc1cc(OC)cc(-c2cccc(C3(c4ccccc4)N=C(N)N(C)C3=O)c2)c1 (stereo unspecified) | 2.41 | 80.7% | 851 nM |
| COc1ccc(-c2cccc(C3(c4ccccc4)N=C(N)N(C)C3=O)c2)cc1OC (stereo unspecified) | 2.49 | 97.5% | 119 nM |
| CN1C(=O)C(c2ccccc2)(c2cccc(-c3ccc(C(C)(C)C)cc3)c2)N=C1N (stereo unspecified) | 3.1 | 34.2% | > 10000 nM |
| COc1ccc(-c2cccc(C3(c4ccccc4)N=C(N)N(C)C3=O)c2)c(OC)c1 (stereo unspecified) | 2.46 | 75.5% | 1570 nM |
| CN1C(=O)C(c2ccccc2)(c2cccc(Br)c2)N=C1N (stereo unspecified) | 2.04 | 33.1% | > 10000 nM |
| COc1cccc(-c2cccc(C3(c4ccccc4)N=C(N)N(C)C3=O)c2)c1F (stereo unspecified) | 2.72 | 94.7% | 220 nM |
| Cc1cc(C)c(-c2cccc(C3(c4ccccc4)N=C(N)N(C)C3=O)c2)c(C)c1 (stereo unspecified) | 2.55 | 45.7% | > 10000 nM |
| COc1ccc(F)cc1-c1cccc(C2(c3ccccc3)N=C(N)N(C)C2=O)c1 (stereo unspecified) | 2.86 | 96% | 173 nM |
| Cc1ccc(C)c(-c2cccc(C3(c4ccccc4)N=C(N)N(C)C3=O)c2)c1 (stereo unspecified) | 2.52 | 42.1% | > 10000 nM |
| COc1cccc(OC)c1-c1cccc(C2(c3ccccc3)N=C(N)N(C)C2=O)c1 (stereo unspecified) | 2.02 | 82.1% | 720 nM |
| CCc1ccc(-c2cccc(C3(c4ccccc4)N=C(N)N(C)C3=O)c2)cc1 (stereo unspecified) | 2.56 | 43.5% | > 10000 nM |
| CN1C(=O)C(c2ccccc2)(c2cccc(-c3cccc(-c4ccccc4)c3)c2)N=C1N (stereo unspecified) | 3.14 | 20.5% | > 10000 nM |
| Cc1ccc(F)cc1-c1cccc(C2(c3ccccc3)N=C(N)N(C)C2=O)c1 (stereo unspecified) | 2.35 | 92% | 328 nM |
| Cc1cccc(C)c1-c1cccc(C2(c3ccccc3)N=C(N)N(C)C2=O)c1 (stereo unspecified) | 2.42 | 34.1% | > 10000 nM |
| COc1ccc(OC)c(-c2cccc(C3(c4ccccc4)N=C(N)N(C)C3=O)c2)c1 (stereo unspecified) | 2.54 | 95% | 195 nM |
| Cc1ccc(-c2cccc(C3(c4ccccc4)N=C(N)N(C)C3=O)c2)c(F)c1 (stereo unspecified) | 2.97 | 97% | 141 nM |
| Cc1cc(F)ccc1-c1cccc(C2(c3ccccc3)N=C(N)N(C)C2=O)c1 (stereo unspecified) | 2.34 | 87.7% | 456 nM |
| Cc1ccc(-c2cccc(C3(c4ccccc4)N=C(N)N(C)C3=O)c2)c(C)c1 (stereo unspecified) | 2.51 | 40.9% | > 10000 nM |
| CN1C(=O)C(c2ccccc2)(c2cccc(-c3ccc(-c4ccccc4)cc3)c2)N=C1N (stereo unspecified) | 3.18 | 43.9% | > 10000 nM |
| Cc1cc(C)cc(-c2cccc(C3(c4ccccc4)N=C(N)N(C)C3=O)c2)c1 (stereo unspecified) | 2.56 | 47.2% | > 10000 nM |
